Experiment [1] has as its target T1, matriptase-2 (MT-2) (Homo sapiens, UniProt Q8IU80).
T1 construct: expressed in transfected cells; host or cells: stably transfected HEK cells
T1 sequence (Q8IU80 1-802 isoform Q8IU80-1): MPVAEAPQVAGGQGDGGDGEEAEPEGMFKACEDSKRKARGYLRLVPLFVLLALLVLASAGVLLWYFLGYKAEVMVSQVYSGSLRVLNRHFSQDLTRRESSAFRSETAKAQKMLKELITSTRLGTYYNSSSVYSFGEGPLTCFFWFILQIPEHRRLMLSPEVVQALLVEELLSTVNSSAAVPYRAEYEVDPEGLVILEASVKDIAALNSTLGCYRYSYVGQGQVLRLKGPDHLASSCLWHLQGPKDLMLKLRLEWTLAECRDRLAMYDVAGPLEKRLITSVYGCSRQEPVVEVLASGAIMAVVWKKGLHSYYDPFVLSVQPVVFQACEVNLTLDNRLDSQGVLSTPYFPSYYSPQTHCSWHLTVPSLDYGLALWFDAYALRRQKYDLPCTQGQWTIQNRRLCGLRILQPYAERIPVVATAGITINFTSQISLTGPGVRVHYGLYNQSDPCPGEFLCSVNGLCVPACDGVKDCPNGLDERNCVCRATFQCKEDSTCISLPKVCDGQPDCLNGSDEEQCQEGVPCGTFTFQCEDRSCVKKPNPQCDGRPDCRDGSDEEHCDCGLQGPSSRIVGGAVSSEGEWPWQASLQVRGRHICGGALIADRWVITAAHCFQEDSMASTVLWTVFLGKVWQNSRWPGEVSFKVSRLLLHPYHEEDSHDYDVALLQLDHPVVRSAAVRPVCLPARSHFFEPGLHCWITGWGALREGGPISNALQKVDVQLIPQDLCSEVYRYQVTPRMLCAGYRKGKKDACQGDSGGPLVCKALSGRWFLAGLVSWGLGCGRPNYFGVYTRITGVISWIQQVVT
As to the kind of experiment: MT-2 activity on the surface of transfected HEK cells. Format: cell-based. The procedure: To further investigate the inhibitory potency of the probe in an in vitro approach, MT-2 activity was measured on the surface of stably transfected HEK cells expressing MT-2. Different probe concentrations were applied (Figure 3).
To measure MT-2 activity at the cell surface, HEK cells were seeded in 96 well cell culture plates and cultivated at 37 °C in DMEM medium until a confluence of approximately 70% was reached. After two washing steps with PBS and two further days of incubation in Opti-MEM medium at 37 °C, the culture medium was removed and the cells were washed two times with PBS. MT-2 assay buffer, biotin-RQRR-CMK and DMSO were then directly added to the cells before the reaction was started by adding substrate solution in a final concentration of 40 µM to each well. The conversion of the substrate by MT-2 was followed over a time of 50 min at 37 °C.

The target in experiment [2] is T2, matriptase-2 (MT-2) (Homo sapiens, UniProt Q8IU80).
T2 construct: This fragment consists of the catalytic and the three LDLRA domains of MT-2; made in house; host or cells: stably transfected HEK cells; concentrated culture supernatant, not purified
T2 sequence (Q8IU80 577-811 limits assumed): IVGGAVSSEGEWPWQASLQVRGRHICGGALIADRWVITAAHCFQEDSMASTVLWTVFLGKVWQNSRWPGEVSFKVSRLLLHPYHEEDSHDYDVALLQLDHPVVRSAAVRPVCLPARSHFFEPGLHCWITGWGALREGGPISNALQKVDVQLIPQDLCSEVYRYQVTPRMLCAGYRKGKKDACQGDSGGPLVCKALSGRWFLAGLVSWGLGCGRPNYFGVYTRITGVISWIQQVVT
T2 sequence (Q8IU80 438-576 partner limits assumed): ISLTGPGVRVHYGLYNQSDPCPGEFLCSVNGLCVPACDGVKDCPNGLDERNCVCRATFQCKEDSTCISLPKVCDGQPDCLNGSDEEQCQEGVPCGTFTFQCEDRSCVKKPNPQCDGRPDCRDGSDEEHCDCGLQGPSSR
As to the kind of experiment: MT-2 activity in supernatant of transfected HEK cells (fluorogenic substrate Boc-Gln-Ala-Arg-AMC). The format is biochemical. The conditions noted are these: probe 25–100 nM, Boc-Gln-Ala-Arg-AMC 40 µM, NaCl 150 mM, TRIS 50 mM, pH 8.0, 10 µg supernatant, 37 °C, 50 min, ex 340 nm, em 460 nm, non-linear regression of progress curves. As for the experimental part: We used stably transfected human embryonic kidney (HEK) cells as the source for MT-2 [14]. […] Initially, the inhibitory potency of biotin-RQRR-CMK against MT-2 was assessed. For this purpose, we determined MT-2 activity in the supernatant of transfected HEK cells using a tripeptidic fluorogenic substrate. Probe concentrations of 25 nM to 100 nM were applied. Values kobs were obtained from non-linear regression of the progress curves of the supernatant experiment using the equation [P] = v0 (1 − e^−kobs t)/kobs + d(1) where [P] is the product concentration, v0 is the initial rate and d is the offset. […]
Stably transfected human embryonic kidney (HEK) cells expressing MT-2 or an empty vector construct were cultivated in Dulbecco’s Modified Eagle’s Medium (DMEM) containing fetal bovine serum (FBS) as well as penicillin and streptadivin in a concentration of […] at 37 °C. […] The protein concentration of the obtained protein mixture was determined by absorption measurements using Roti-Nanoquant Bradford solution.
Kinetic measurements were performed on a Fluostar Optima plate reader (BMG Lab Tech, Offenburg, Germany) in 96 well plates. […]

The next experiment concerns MT-2. The conditions noted are these: active-site directed inhibitor of serine proteases; ref [1],[38]; cited from earlier work. As for the experimental part: (§1) To confirm that biotin-RQRR-CMK binds to the active site of MT-2, we added aprotinin to the supernatants of HEK-MT-2 cells. Treatment with aprotinin or DMSO was carried out 2 h prior to probe treatment. […] MT-2 was present in the supernatant of transfected HEK cells incubated with the probe and/or aprotinin (Figure 6: panel a).

Experiment [3] concerns matriptase-2 (MT-2). Briefly: Western blot detection of biotin-RQRR-CMK-labeled MT-2 in HEK-cell supernatant (Strep-Tactin/AP). The conditions noted are these: 30 µg HEK-MT-2 supernatant, 50 µM aprotinin for 2 h before probe (5 µM, 30 min). The procedure:
Similar to antibody staining addressing the myc tag, the biotin tag which was chemically introduced by biotin-RQRR-CMK was employed for the detection of MT-2 after western blotting. For this purpose, 30 µg of HEK-mock or HEK-MT-2 supernatants were incubated with or without biotin-RQRR-CMK prior to SDS-PAGE. After transfer to a nitrocellulose membrane, the blot was incubated with a conjugate of Strep-Tactin with alkaline phosphatase (AP). […] This band was only observed in the supernatant of HEK cells expressing active MT-2 that was treated with the probe.
as §1
Stably transfected human embryonic kidney (HEK) cells expressing MT-2 or an empty vector construct were cultivated in Dulbecco’s Modified Eagle’s Medium (DMEM) containing fetal bovine serum (FBS) as well as penicillin and streptadivin in a concentration of […] at 37 °C. […] The protein concentration of the obtained protein mixture was determined by absorption measurements using Roti-Nanoquant Bradford solution. […]
For orientation: A western blot detects proteins with antibodies after separation by electrophoresis.

Residues, ends and D or L forms follow the SMILES beside them. *: point of attachment. Biotin = O=C1N[C@H]2[C@H](CS[C@H]2CCCCC(=O)*)N1; CH2Cl = ClC*

The values that follow come from paper PMC6027297, “A Short Peptide Inhibitor as an Activity-Based Probe for Matriptase-2” (Pharmaceuticals, 2018).

On matriptase-2 (MT-2) [1] (surface of stably transfected HEK cells, probe 100–600 nM, substrate 40 µM, MT-2 assay buffer, 37 °C, 50 min, linear regression of progress curves, equation (3)), `N=C(N)NCCC[C@H](NC(=O)[C@H](CCCNC(=N)N)NC(=O)[C@H](CCC(N)=O)NC(=O)[C@H](CCCNC(=N)N)NC(=O)CCCC[C@@H]1SC[C@@H]2NC(=O)N[C@@H]21)C(=O)CCl` [biotin-RQRR-CMK] (Biotin-RQRR-CH2Cl) showed a Ki of 89 nM. For the same molecule, at matriptase-2 (MT-2) [1] (surface of transfected HEK cells), the “Ki (in words)” value is on record as “two-digit nanomolar Ki value”. The “kinac/Ki (second-order rate constant of inactivation)” value at matriptase-2 (MT-2) [2] was 10,800 M^−1 s^−1.

On to aprotinin, for which, in the experiment on MT-2, the “inhibition of MT-2” value was “has been shown to inhibit MT-2”. In addition, the “protection of MT-2 from labeling by biotin-RQRR-CMK” value with matriptase-2 (MT-2) [3] is listed as “labeled MT-2 fragment which was missing in HEK-MT-2 supernatants after aprotinin treatment”.

Broadly, the Ki is a dissociation constant, usually derived from enzyme kinetics or from competition with a known ligand. A lower Ki goes with higher affinity.
